Reference: patent US11464783B2, “Heterocyclic compounds” (Aligos Therapeutics, Inc., priority 2019, dated 2022)

These compounds were tested on HBV (assay: HBV-DNA Antiviral Assay Using HepG2.2.15 Cells). Conditions: Hepatitis B virus, HepG2.2.15, 168 h, extracellular HBV DNA by qPCR, day 7.
Assay type: cell-based
Experimental: The following assay procedure describes the HBV antiviral assay. This assay uses HepG2.2.15 cells, which have been transfected with HBV genome, and extracellular HBV DNA quantification as endpoint. Cell viability is assessed in parallel by measuring the intracellular ATP content using the CellTiter-Glo® reagent from Promega.
On day 0, HepG2.2.15 cells were seeded in 96-well plates at a density of 6.0×10^4 cells/well (0.1 mL/well). The cells were incubated at 37° C. and 5% CO2.
On day 1, the test articles were diluted and added to cell culture wells (8 concentrations, 4-fold dilution, in duplicate). GLS4, Tenofovir and Sorafenib were used as reference compounds. 100 μL of culture medium containing the compounds was added to the plate, and the final total volume per well was 200 μL. The final concentration of DMSO in the culture medium was 0.5%. The plate map of compound treatment is shown below. The cells were cultured at 37° C. and 5% CO2 for 3 days.
On day 4, the plates were refreshed with culture media with compounds.
On day 7, cell viability was assessed using the CellTiter-Glo®, and the cell culture supernatants were collected for determination of HBV DNA by qPCR.
Extracellular DNA was isolated with QIAamp 96 DNA Blood Kit per the manufacturer's manual. HBV DNA was then quantified by qPCR with HBV specific primers and probes as specified in Table 1 using the FastStart Universal MasterMix from Roche on an ABI-7900HT. The PCR cycle program consisted of 95° C. for 10 min, followed by 40 cycles at 95° C. for 15 sec and 60° C. for 1 min.
A DNA standard was prepared by dilution of the pAAV2 HBV1.3 plasmid with concentrations ranging from 10 to 1×10^7 copies/uL and used to generate a standard curve by plotting Ct value vs. the concentration of the HBV plasmid DNA standard. The quantity of HBV DNA in each sample was determined by interpolating from the standard curve.
Cell viability was calculated as follows: % Cell viability=(luminescence value of test sample−average luminescence value of blank)/(average luminescence value of 0.5% DMSO control−average luminescence of blank)×100%. HBV DNA inhibition was calculated as follows: 100-(HBV DNA copy number of test sample−HBV DNA copy number of ETV)/HBV DNA copy number of 0.5% DMSO control−HBV DNA copy number of ETV)×100%. The CC50, EC50 and EC90 values were determined by dose-response curves fitted by GraphPad Prism using “log (agonist) vs. response-Variable slope”.

First: C[C@@H]1CS(=O)(=O)[C@@H](c2cccs2)CN1C(=O)Nc1ccc(F)c(Cl)c1 [Compound 22, (2R,5R)-N-(3-chloro-4-fluoro-phenyl)-5-methyl-1,1-dioxo-2-(2-thienyl)-1,4-thiazinane-4-carboxamide]
Second: C[C@H]1CS(=O)(=O)[C@H](c2cccs2)CN1C(=O)c1ccc(Br)c(Cl)c1 [Compound 24, (4-bromo-3-chloro-phenyl)-[(2S,5S)-5-methyl-1,1-dioxo-2-(2-thienyl)-1,4-thiazinan-4-yl]methanone]
The EC50 of the first is higher: over 5000 nM for the first, 100 to 500 nM for the second.

Compared with `O=C(c1ccc(Cl)cc1F)N1CCS(=O)(=O)C(c2cccs2)C1` (stereo not shown) [Compound 10a, (4-chloro-2-fluoro-phenyl)-[1,1-dioxo-2-(2-thienyl)-1,4-thiazinan-4-yl]methanone], `O=C(c1ccc(Cl)cc1Cl)N1CCS(=O)(=O)C(c2cccs2)C1` (stereo not shown) [Compound 11a, (2,4-dichlorophenyl)-[1,1-dioxo-2-(2-thienyl)-1,4-thiazinan-4-yl]methanone] is lower in EC50: over 5000 nM for the first, 500 to 5000 nM for the second. The second is the more potent here.

Going from `O=C(c1cccc(Cl)c1F)N1CCS(=O)(=O)C(c2cccs2)C1` (stereo not shown) [Compound 14a, (3-chloro-2-fluoro-phenyl)-[1,1-dioxo-2-(2-thienyl)-1,4-thiazinan-4-yl]methanone] to `O=C(c1ccc(Br)c(Cl)c1)N1CCS(=O)(=O)C(c2cccs2)C1` (stereo not shown) [Compound 6a, (4-bromo-3-chloro-phenyl)-[1,1-dioxo-2-(2-thienyl)-1,4-thiazinan-4-yl]methanone], the EC50 falls from over 5000 nM to at most 100 nM. The second is the more potent here.

Same assay, conditions: extracellular HBV DNA by qPCR, day 7

First: Cc1cc(C(=O)N2CCS(=O)(=O)C(c3cccs3)C2)ccc1Cl (single isomer, unassigned) [Compound 9b, (4-chloro-3-methyl-phenyl)-[1,1-dioxo-2-(2-thienyl)-1,4-thiazinan-4-yl]methanone]
Second: O=C(c1ccc(Cl)c(Cl)c1)N1CCS(=O)(=O)C(c2cccs2)C1 (single isomer, unassigned) [Compound 8a, (3,4-dichlorophenyl)-[1,1-dioxo-2-(2-thienyl)-1,4-thiazinan-4-yl]methanone]
The EC50 of the first is lower: 100 to 500 nM for the first, 500 to 5000 nM for the second. The first is the more potent here.

First: Cc1cc(C(=O)N2CCS(=O)(=O)C(c3cccs3)C2)ccc1Cl (single isomer, unassigned) [Compound 9a, (4-chloro-3-methyl-phenyl)-[1,1-dioxo-2-(2-thienyl)-1,4-thiazinan-4-yl]methanone]
Second: O=C(c1ccc(Cl)c(Cl)c1)N1CCS(=O)(=O)C(c2cccs2)C1 (single isomer, unassigned) [Compound 8b, (3,4-dichlorophenyl)-[1,1-dioxo-2-(2-thienyl)-1,4-thiazinan-4-yl]methanone]
The EC50 of the first is higher: 500 to 5000 nM for the first, 100 to 500 nM for the second. The second is the more potent here.

`O=C(c1ccc(Br)c(Cl)c1)N1CCS(=O)(=O)C(c2cccs2)C1` (stereo not shown) [Compound 6b, (4-bromo-3-chloro-phenyl)-[1,1-dioxo-2-(2-thienyl)-1,4-thiazinan-4-yl]methanone] and `Cn1cnc(-c2ccc(C3CN(C(=O)c4ccc(Br)c(Cl)c4)CCS3(=O)=O)s2)c1` (single isomer, unassigned) [Compound 16a, (4-bromo-3-chloro-phenyl)-[2-[5-(1-methylimidazol-4-yl)-2-thienyl]-1,1-dioxo-1,4-thiazinan-4-yl]methanone] fall in the same range of EC50: 100 to 500 nM for the first, 100 to 500 nM for the second.

Compound `Cn1cnc(-c2ccc(C3CN(C(=O)c4ccc(Br)c(Cl)c4)CCS3(=O)=O)s2)c1` (single isomer, unassigned) [Compound 16b, (4-bromo-3-chloro-phenyl)-[2-[5-(1-methylimidazol-4-yl)-2-thienyl]-1,1-dioxo-1,4-thiazinan-4-yl]methanone] has an EC50 of 500 to 5000 nM.
